Laboratory results: patent publication US20100008912A1, “COMBINATION DRUG” (TAKEDA PHARMACEUTICAL COMPANY LIMITED, priority 2006, published 2010)
Where a name gives a salt, the structure may show the parent alone.

What was measured:
[1] = system: N87 (gastric cancer); assay: Cell growth determination test of combined use, Combination Index, N87; assay type: cell-based, human; conditions: combined use with compound A
Description: (§1) The cell density of the cell suspension was measured by cell counter Sysmex CDA500, and the cell density was adjusted to 4×10^4 cell/mL using the aforementioned medium, which was dispensed to each well of a 96 well multi-well culture plate (Nunc) by 0.15 mL and cultured overnight at 37° C., 5% CO2. […] After culturing at 37° C., 5% CO2 for 5 days, the cells of each well were fixed, stained and subjected to colorimetry. The effect of the combined use was determined by the method of Chou T C, Talalay P Adv.
(§2) The effect of combined use was determined by the method of Chou T C, Talalay P Adv.

[2] = system: OE19 (esophageal cancer); assay: Cell growth determination test of combined use, Combination Index, OE19; assay type: cell-based, human; conditions: combined use with compound A
Description: as §1, §2

[3] = system: Human breast cancer cell line BT-474; assay: Cell growth test of combined use, Combination Index by the method of Chou and Talalay, BT-474; assay type: cell-based; conditions: for Combination Index at the time of inhibition of cell growth by 50%: combined use with compound A, BT-474
Description: as §1, §2

[4] = system: Human breast cancer cell line BT-474 (HER2 high expressing); assay: Tumor growth of BT-474 transplanted subcutaneously in nude mouse, combined use; assay type: in vivo; conditions: compound A 10 mg/mL, 10 mL/kg orally twice a day, 14 days, 10 mL/kg intraperitoneally twice a week
Description: (§3) Human breast cancer cell line BT-474 (ATCC (American Type Culture Collection) catalog No. HTB-20, Lasfargues E Y, In Vitro 15:723-729 (1979)), which is a passage cultured HER2 high expressing cell, was treated with trypsin and suspended in RPMI-1640 medium (GibcoInvitrogen) containing 10% bovine fetus serum (GibcoInvitrogen).
as §3

[5] = system: HER2 high expressing clinical gastric cancer cell line (4-1ST); assay: Tumor growth of 4-1ST tumor pieces transplanted subcutaneously in nude mouse, combined use; assay type: in vivo
Description: A tumor mass of 4-1ST (obtained from Central Institute for Experimental Animals), which was HER2 high expressing clinical gastric cancer cell line transplanted and passaged in vivo in nude mouse, was recovered from nude mouse, aseptically cut into 2 to 3 mm square pieces. The above-mentioned tumor piece was fixed on a trocar transplantation tool and transplanted subcutaneously into the abdomen of nude mouse. As a nude mouse for transplantation, BALB/cAJc l-nu/nu, female, 5-week-old mice were purchased from CLEA Japan, Inc. After 1 week of acclimation on receipt of the mice, the tumor piece was transplanted subcutaneously into the abdomen of 6-week-old mouse. The tumor volume was measured over time from 2 weeks after the transplantation and the mouse with a tumor volume of from 200 to 300 mm^3 was used for the test. Compound A was adjusted to a concentration of 10 mg/mL with 0.5% aqueous methylcellulose solution, and orally administered to mouse at a liquid amount of the above-mentioned compound A suspension of 10 mL/kg body weight. Compound A was administered twice a day in the morning and in the afternoon (administration interval was 7 hr or more) for 14 consecutive days. As for trastuzumab (Herceptin (trademark) (Genentech, Inc.) catalog No. NDC 50242-134-68), undiluted solution (21 mg/mL) was diluted to 1 mg/mL with saline, and intraperitoneally administered at a liquid amount of 10 mL/kg body weight. Trastuzumab was administered twice a week, totaling 4 times. The tumor volume was measured every 2 or 3 days, and the final tumor volume was measured on the next day of the completion of the 14 day administration and the effect of combined use was determined (FIG. 3). […] As for cetuximab (Erbitux (trademark)), undiluted solution (2 mg/mL) was intraperitoneally administered at a liquid amount of 10 mL/kg body weight. […] The tumor volume was measured every 2 or 3 days, and the final tumor volume was measured on the next day of the completion of the 14 day administration and the effect of combined use was determined (FIG. 4).

[6] = system: Human breast cancer cell line BT-474; assay: Cell growth inhibitory assay, SRB staining method, BT-474; assay type: cell-based; conditions: in vitro; serially diluted; 5 days; BT-474 (FIG. 7)
Description: (§4) Human breast cancer cell line BT-474 was treated with trypsin and suspended in RPMI 1640 medium (Invitrogen) containing 10% bovine fetus serum (Invitrogen). BT-474 cell was plated on a 96 well plate at 6000 cells/100 μL/well. The next day, fulvestrant alone, compound A alone or a mixture of fulvestrant and compound A was serially diluted and added. After addition of the compound, the mixture was stood in a CO2 incubator for 5 days. 50 μL of 25% glutaraldehyde solution (Wako) was added to 200 μL of medium and the mixture was left standing at room temperature for 15 min. The plate was washed with PBS once, 200 μL of PBS was added, 25 μL of 50% trichloroacetic acid was added, and the mixture was left standing at 4° C. for 1 hr or longer. The plate was washed 5 times with tap water, redundant water was removed by slamming the plate against Kimtowel. 50 μL of 0.4% (w/v) Sulforhodamine B (SRB, Sigma)-containing 1% (v/v) acetic acid solution was added to each well and, 15 min later, the plate was washed 3 times with 1% acetic acid solution (v/v). The plate was thoroughly dried, 10 mM Tris solution was added, and the mixture was stirred well with a plate shaker, and the absorbance at 550 nm was measured (Bio-Rad, Benchmark Plus). In calculation, a control free of a drug was 100% (FIG. 7).

[7] = system: Human breast cancer cell line MCF-7; assay: Cell growth inhibitory assay, SRB staining method, MCF-7; assay type: cell-based; conditions: in vitro; serially diluted; 4 days; MCF-7 (FIG. 8)
Description: Human breast cancer cell line MCF-7 cell was plated on a 96 well plate at 3000 cells/100 μL/well. The next day, fulvestrant alone, compound A alone or a mixture of fulvestrant and compound A was serially diluted and added.
as §4, with “After” for “Human breast cancer cell line BT-474 was treated with trypsin and suspended in RPMI 1640 medium (Invitrogen) containing 10% bovine fetus serum (Invitrogen). BT-474 cell was plated on a 96 well plate at 6000 cells/100 μL/well. The next day, fulvestrant alone, compound A alone or a mixture of fulvestrant and compound A was serially diluted and added. After”, “for 4” for “for 5”, “(FIG. 8).” for “(FIG. 7).”

[8] = system: HER family genes (EGFR, HER2, HER3, HER4) in MCF-7 cell; assay: HER family gene expression (TaqMan PCR) in MCF-7; assay type: cell-based, human
Description: MCF-7 cell was plated on a 6 well plate at 8.6×10^4 cells/well. The next day, the cells were treated with compound A (1 μM), fulvestrant (1 μM) or compound A (1 μM)+fulvestrant (1 μM). After 120 hr, total RNA was extracted using an RNeasy mini kit (Qiagen). 1 μg of total RNA was subjected to a Reverse Transcriptase reaction using a high capacity cDNA archive kit (P/N 4322171, Applied Biosystems) to give cDNA. The obtained cDNA was diluted 50-fold with Nuclease Free water (Promega), and 5 μL thereof was used for PCR reaction. 2×TaqMan Universal PCR Master Mix (12.5 μL) and 20×Probe & Primer (TaqMan Gene Expression Assays, 1.25 μL) and Nuclease Free water (6.25 μL) were blended. PCR reaction and analysis were performed using GeneAmp 7700 (Applied Biosystems). The reaction conditions were 50° C.×2 min, 95° C.×10 min, followed by 95° C.×15 sec, 60° C.×1 min, which cycle was repeated 40 times. For data analysis, calculation was made with GAPDH as an internal control and according to ? Ct method

[9] = system: HER2 high expressing cancer cells (BT-474, N87, Calu3, OE19); assay: Cell growth determination test of combined use, summary over the four cell lines; assay type: cell-based, human; conditions: in vitro; summary of Table 1
Description: (§5) Human breast cancer cell line BT-474 (ATCC (American Type Culture Collection) catalog No. HTB-20, Lasfargues E Y, In Vitro 15:723-729 (1979)), which is a passage cultured HER2 high expressing cell, was treated with trypsin and suspended in RPMI-1640 medium (GibcoInvitrogen) containing 10% bovine fetus serum (GibcoInvitrogen). The cell density of the cell suspension was measured by cell counter Sysmex CDA500, and the cell density was adjusted to 4×10^4 cell/mL using the aforementioned medium, which was dispensed to each well of a 96 well multi-well culture plate (Nunc) by 0.15 mL and cultured overnight at 37° C., 5% CO2. Thereto was added a medium containing compound A 40-200 nmol/L at a given concentration, a medium containing trastuzumab (Herceptin (trademark) (Genentech, Inc.) catalog No. NDC 50242-134-68, 79-400 ng/mL) at a given concentration, or a medium containing compound A 40-200 nmol/L and trastuzumab 79-400 ng/mL at a given concentration. […] The effect of the combined use was determined by the method of Chou T C, Talalay P Adv. […]
(§6) HER2 high expressing human cancer cell lines, BT-474 (breast cancer), N87 (gastric cancer), Calu3 (lung cancer) and OE19 (esophageal cancer), were purchased from ATCC and used for the experiments. […] The effect of combined use was determined by the method of Chou T C, Talalay P Adv.

[10] = system: Calu3 (lung cancer); assay: Cell growth determination test of combined use, Combination Index, Calu3; assay type: cell-based, human; conditions: combined use with compound A; Calu-3
Description: as §5, §6

For `O=c1[nH]cc(F)c(=O)[nH]1` [Compound 5FU, 5FU], the “Combination Index at the time of inhibition of cell growth by 50%” value [1] was 0.95 and the “Combination Index at the time of inhibition of cell growth by 50%” value [2] was 1.43.

With `CC(C)(O)CC(=O)NCCn1ccc2ncnc(Nc3ccc(Oc4cccc(C(F)(F)F)c4)c(Cl)c3)c21` [Compound A, N-{2-[4-({3-chloro-4-[3-(trifluoromethyl)phenoxy]phenyl}amino)-5H-pyrrolo[3,2-d]pyrimidin-5-yl]ethyl}-3-hydroxy-3-methylbutanamide] the “Effect of combined use of compound A and trastuzumab on cell growth” value ([3]; in vitro, compound A 40-200 nmol/L + trastuzumab 79-400 ng/mL, 5 days, Combination Index vs Fraction affected (FIG. 1)) was “synergistic effect”, the “Effect of combined use of compound A and paclitaxel on tumor volume, compared to each agent alone” value ([4]; paclitaxel 3 mg/mL, 4 times (FIG. 6)) was “stronger action” and the “Effect of combined use of compound A and trastuzumab on tumor volume” value ([4]; trastuzumab 1 mg/mL, 4 times, two-way analysis of variance (FIG. 2)) was “synergistic effect”. The “Effect of combined use of compound A and erlotinib on tumor volume” value ([5]; compound A 10 mg/mL and erlotinib 2 mg/mL, each 10 mL/kg orally twice a day, 14 days (FIG. 5)) was “synergistic effect”, the “Effect of combined use of compound A and cetuximab on tumor volume” value ([5]; compound A 10 mg/mL, 10 mL/kg orally twice a day, 14 days, cetuximab 2 mg/mL, 10 mL/kg intraperitoneally twice a week, 4 times (FIG. 4)) was “synergistic effect” and the “Effect of combined use of compound A and trastuzumab on tumor volume” value ([5]; compound A 10 mg/mL, 10 mL/kg orally twice a day, 14 days, trastuzumab 1 mg/mL, 10 mL/kg intraperitoneally twice a week, 4 times (FIG. 3)) was “synergistic effect”. For the same molecule, the “Cell growth inhibition by combined use of compound A and fulvestrant, compared to each alone” value [6] was “stronger cell growth inhibitory action”, the “Cell growth inhibition by combined use of compound A and fulvestrant, compared to each alone” value [7] was “stronger cell growth inhibitory action” and the “Action on HER signal” value ([8]; compound A 1 μM alone or + fulvestrant 1 μM, 120 hr (FIG. 9)) was “HER signal blocking action”. For the same molecule, the “Effect of combined use of compound A and chemotherapeutic agents on cell growth” value [9] was “additive effect”.

For `CC(=O)O[C@@]12CO[C@@H]1C[C@H](O)[C@@]1(C)C(=O)[C@H](O)C3=C(C)[C@@H](OC(=O)[C@H](O)[C@@H](NC(=O)OC(C)(C)C)c4ccccc4)C[C@@](O)([C@@H](OC(=O)c4ccccc4)[C@H]21)C3(C)C` [docetaxel], the “Combination Index at the time of inhibition of cell growth by 50%” value [3] was 1.10, the “Combination Index at the time of inhibition of cell growth by 50%” value [1] was 0.57 and the “Combination Index at the time of inhibition of cell growth by 50%” value [2] was 0.94.

With `COc1cccc2c1C(=O)c1c(O)c3c(c(O)c1C2=O)C[C@@](O)(C(=O)CO)C[C@@H]3O[C@H]1C[C@H](N)[C@H](O)[C@H](C)O1` [doxorubicin hydrochloride] the “Combination Index at the time of inhibition of cell growth by 50%” value [3] was 1.65, the “Combination Index at the time of inhibition of cell growth by 50%” value [10] was 1.39 and the “Combination Index at the time of inhibition of cell growth by 50%” value [2] was 0.96.

With `C[C@]12CC[C@@H]3c4ccc(O)cc4C[C@@H](CCCCCCCCC[S+]([O-])CCCC(F)(F)C(F)(F)F)[C@H]3[C@@H]1CC[C@@H]2O` (stereo partly drawn) [fulvestrant] the “HER family gene expression (EGFR, HER2, HER3, HER4), control group = 1” value ([8]; 1 μM, 120 hr, GAPDH as internal control (FIG. 9)) was “increase”.

In the case of `CCc1c2c(nc3ccc(OC(=O)N4CCC(N5CCCCC5)CC4)cc13)-c1cc3c(c(=O)n1C2)COC(=O)[C@]3(O)CC` [irinotecan hydrochloride], the “Combination Index at the time of inhibition of cell growth by 50%” value [1] is reported as 1.02 and the “Combination Index at the time of inhibition of cell growth by 50%” value [2] is reported as 0.83.
